The values below are quoted from earlier work in patent US20030100464A1, “Dishwashing compositions containing alkylbenzenesulfonate surfactants” (priority 2001, published 2003).

The conditions of data set [1]: all-aqueous solution at 25° C., ionic strength 0.1 to 0.5 M.
For data set [2] the following is noted: enzymes compared at 0.075 to 2.5 mg protein per liter.

Take `CCC(N)CCN` (stereo not drawn) [1,3 pentane diamine]: in data set [1], the pK1 is reported as 10.5 and the pK2 is 8.9.

Turning to `NCCCN` [1,3 propane diamine], in data set [1], the pK1 is recorded as 10.5 and the pK2 is listed as 8.8.

In the case of `NCCCCCCN` [1,6 hexane diamine], in data set [1], the pK1 is given as 11 and the pK2 is given as 10. `CC(CN)CCCN` (stereo not drawn) [2-methyl 1,5 pentane diamine]: in data set [1], the pK1 is on record as 11.2 and the pK2 is 10.0.

B1: D96L: D96L lipolytic enzyme variant of the native lipase derived from Humicola lanuginosa (protein, UniProt O59952 23-291, looked up, variant D96L)
Lipase: EVSQDLFNQFNLFAQYSAAAYCGKNNDAPAGTNITCTGNACPEVEKADATFLYSFEDSGVGDVTGFLALDNTNKLIVLSFRGSRSIENWIGNLNFLLKEINDICSGCRGHDGFTSSWRSVADTLRQKVEDAVREHPDYRVVFTGHSLGGALATVAGADLRGNGYDIDVFSYGAPRVGNRAFAEFLTVQTGGTLYRITHTNDIVPRLPPREFGYSHSSPEYWIKSGTLVPVTRNDIVKIEGIDATGGNNQPNIPDIPAHLWYFGLIGTCL
On to B1, for which, in data set [2], the “improvement of lard stain removal efficiency, factor over the wild-type lipase” value is listed as 4.4.
